Where a SMILES comes first, the peptide text is derived from it. Bridges are numbered along the chain shown (N, C = ends). [ ]: non-standard residue; d: D form. The star is where a group is joined. Myristoyl = CCCCCCCCCCCCCC(=O)*; S5 = C=CCCC[C@](C)(N)C(=O)O
Key:
HeLa cells [1] = test: Cellular uptake of fluorescently labeled peptides by flow cytometry; assay type: cell-based, human; details: fluorescently labeled peptide, 5 μM, 90 min, flow cytometry fluorescence intensity, % of levels observed for R8
Method: As the knock‐down of UNC119a was reported to increase the number of cytokinetic and binucleated cells,13 we investigated the influence of UNC119‐binding peptides on cell morphology. Initially, the uptake of fluorescently labeled peptide 4 by HeLa cells was investigated by using flow cytometry (c=5 μM for 90 min, Figure S4 and Table S2). These measurements show cellular uptake of 4 reaching about 50 % of the levels observed for cell‐penetrating peptide octa‐arginine (R8).30 Considering that this cellular uptake was sufficient, we tested the effect of unlabeled peptide 4 on cell morphology. As a reference, we used nocodazole (NC), which inhibits tubulin polymerization thereby inducing cell‐cycle arrest in the G2/M phase that results in cells with increased DNA content because chromosomal DNA has already been duplicated. HeLa and mouse fibroblast L cells were incubated with different peptide concentrations for 72 h prior to quantification of DNA content by using flow cytometry.
Supporting Figure S4. Cellular uptake of fluorescently labeled peptides as determined by fluorescence
intensities using flow cytometry in HeLa cells (90 min incubation at c(peptide) = 5 µM).
(1 picture or pasted object on this page, not shown here)

UNC119b = biological target: T1, UNC119b (Homo sapiens, UniProt A6NIH7); test: Fluorescence anisotropy binding assay, UNC119b; details: 5 nM fluorescein-labeled peptide, 4 h at room temperature, 30 mM Tris pH 7.5, 100 mM NaCl, 1 mM TCEP, 0.01% Chaps, triplicate, error 1 σ
T1 construct: made in house; host or cells: E. coli
Method: (§1) Fluorescence anisotropy assay
(§2) UNC119a/b was serially diluted in a buffer containing 30 mM Tris (pH 7.5), 100 mM NaCl, 1 mM TCEP and 0.01% Chaps (assay buffer), treated with 5 nM fluorescein-labeled peptides and incubated for 4 h at room temperature. Binding assays were performed in 384-well, small volume, black flat-bottom, non-binding plates (Greiner). Fluorescence polarization values (λex = 470 nm, λem = 525 nm) were determined using a Safire II plate reader (Tecan) at room temperature. All measurements were performed in triplicates. After correction for changes in fluorescence intensity upon binding, the fluorescence anisotropy data were converted into fraction bound (equation 1) of the FITC- labeled peptide and fitted via non-linear regression in Prism 5.0 (Graphpad).[1] fraction bound = A−Afree (1)
(§3) Afree: anisotropy of free fluorophore
(§4) Abound: anisotropy of bound fluorophore
(§5) Q: change in fluorescence intensity between free and bound state
(§6) Protein expression and purification
(§7) UNC119a and UNC119b were expressed in E. coli according to the previously reported procedures.[2] […]
(§8) Additionally, HeLa cells were supplemented with penicillin and streptomycin. All cultures were routinely tested and found to be free of mycoplasma contamination.

MDA-MB-231 cells [2] = test: Total intracellular peptide concentration by quantitative UPLC-MS; assay type: in vitro ADME; details: for Total drug content, pMols/million cells / Total drug content, Measured Conc: 25 µM compound, 0.5 h; for Total drug content, pMols/million cells: total lysis; for Total drug content, pMols/million cells / Total drug content, Measured Conc / Peptide concentration, total cell, 0.5 h: UPLC-MS; for Fold higher total cell uptake than peptide 10: 25 μM, 30 min, quantitative mass spectrometry; for Fold higher total cell uptake than peptide 10 / Peptide concentration, total cell, 0.5 h: MDA-MB-231 cells; for Total drug content, Measured Conc: concentration in re-suspended cell lysate, dilution factor 10; for Peptide concentration, total cell, 0.5 h: unlabeled peptide 25 μM, 0.5 h incubation, RIPA total lysis, LLOQ given if not detected
Method: (§9) Total intracellular and sub cellular concentrations
(§10) […] cells were cultured DMEM (high glucose) supplemented with 10% FCS and 1% Glutamax.
(§11) When 80% confluency cell culture media was removed from each flask and new media containing 25 µM of peptides was added and incubated with cells for 30 min and 72 h. Following peptide incubation, cells were washed twice with PBS, trypsinized and pelleted. Pellets where lysed in RIPA buffer (Perkin Elmer) for total […]
(§12) lysis; or CelLytic NuCLEAR Extraction Kit (SIGMA) for subcellular fractionation. Total protein quantification BCA (Pierce) was performed prior to MS analysis to normalize sample data.
(§13) Total and sub-cellular quantities of peptides 4, 10 and R8 were quantified[3] in lysates by UPLC-MS utilising a Waters Xevo TQ-XS (WBA0259) and a Waters Acquity UPLC system consisting of, Sample Manager (M16UFL953M), Acquity PDA (F17UPD457A), Column Oven (E17CMP703G) and Binary Solvent Manager (E17BUR621G). For peptides 4 and 10 analytical UPLC separation was performed using a Waters CSH C18 1.7 µm, 2.1 x 50 mm column. A gradient was utilized of 97% A to 5% in 4mins, 0.5 min hold, 5% A to 97% in 0.5mins, where A = 0.1% HCOOH (aq) and B = 0.1% HCOOH in MeCN at a flow rate of 0.75 mL/min (Supporting Figure S7). Compound R8 was analyzed in HILIC mode using a Waters BEH Amide 1.7 µm, 2.1 x 100 mm column with a gradient of 30% A to 95% in 1.5 mins, 1 min hold, 95% A to 30% in 1.5 min, 1 min hold at 0.65 mL/min. The Waters TQ-XS was operated in +ve ion Electrospray (ESI) mode with the optimized transitions for PC658-AC, PC658-MYR and Ac-R8 (Supporting Table S3 and Figure S8). The chromatograms at each transition were extracted, smoothed and integrated to give the standard curve. Chromatograms of the samples were treated similarly and by linear regression (1/x) an in-cell concentration was established in the re-suspended cell lysate using the Waters MassLynx TargetLynxTM product (Supporting Tables S4 – S7).

UNC119a = biological target: T2, UNC119a (Homo sapiens, UniProt Q13432); test: Fluorescence anisotropy binding assay, UNC119a; details: 5 nM fluorescein-labeled peptide, 4 h at room temperature, 30 mM Tris pH 7.5, 100 mM NaCl, 1 mM TCEP, 0.01% Chaps, triplicate, error 1 σ
T2 construct: made in house; host or cells: E. coli
Method: as §1, §2, §3, §4, §5, §6, §7, §8

MDA-MB-231 cells [3] = test: Subcellular (nucleus, cytosol) peptide concentration by quantitative UPLC-MS; assay type: in vitro ADME; details: for Peptide concentration, cytosol, 0.5 h / Peptide concentration, nucleus, 0.5 h / Peptide concentration, cytosol, 72 h / Peptide concentration, nucleus, 72 h: unlabeled peptide 25 μM, MDA-MB-231 cells, subcellular fractionation, LLOQ given if not detected; for Peptide concentration, cytosol, 0.5 h / Peptide concentration, nucleus, 0.5 h: 0.5 h incubation; for Peptide concentration, cytosol, 72 h / Peptide concentration, nucleus, 72 h: 72 h incubation
Method: as §9, §10, §11, §12, §13

HeLa cells [4] = test: DNA content (4N) by propidium iodide staining and flow cytometry, HeLa cells; assay type: cell-based, human; details: control compound 1 µM (maximum tolerated concentration), 24 h, flow cytometry, triplicate, error 1 σ
Method: (§14) 3 x10^4 L or Hela cells were seeded per well in 6–well plates and grown overnight. The following day, cells were treated with the indicated compound concentrations for 72 h or with nocodazole as a control for 24 h). Cells were washed, detached using trypsin and re-suspended in phosphate-buffered saline (PBS).
(§15) Cells were centrifuged at 200xg for 5 min at room temperature (RT) and washed again. Cells were then fixed with 70% ethanol and stained with propidium iodide solution (12 µg/mL propidium iodide (Sigma, Germany), 0.1% (v/v) Triton X-100 and 100 µg/mL DNase-free RNase A (Sigma, Germany) in PBS) for 30 min at room temperature. Cell suspensions were filtered to FACS tubes through a nylon mesh before analysis.
(§16) 10,000 cells for each sample were sorted by the BD LSRII analyzer (Becton Dickinson, USA). FlowJo 6.2.1 software was used for quantification and analysis of all data. For every analysis, FSC and SSC (forward and side scatter, respectively) gating was performed to exclude doublets and debris. In addition, cells were gated for singlets (PI-W vs. PI-A). […]

mouse fibroblast L cells = test: DNA content (4N) by propidium iodide staining and flow cytometry, L cells; assay type: cell-based; details: control compound 1 µM (maximum tolerated concentration), 24 h, flow cytometry, triplicate, error 1 σ
Method: as §14, §15, §16

HeLa cells [5] = test: Fluorescence microscopy of cell morphology (tubulin antibody, DAPI); assay type: cell-based, human; details: 1 μM, 24 h, fixation, anti-tubulin antibody and DAPI staining
Method: 2x10^4 Hela cells were seeded per well in a 24-well plate on cover slips and incubated overnight. Next day, cells were treated with different concentrations of the peptides or DMSO, nocodazole and cytochalasin D as controls and incubated at 37°C and 5% CO2 for the indicated times (72 h or 24 h). Cells were then fixed using 3.7% paraformaldehyde for 15 min at room temperature followed by permeabilization using 0.1% Triton X-100 in PBS for 15 min. Blocking was performed in 2% BSA in PBS containing 0.1% Tween 20 for 1 h at room temperature. Samples were incubated with the indicated primary antibodies (anti-tubulin primary antibody conjugated to FITC) in the blocking solution overnight at 4°C. After washing, cells were incubated with 1 µg/mL DAPI in blocking solution for 1 h at room temperature, followed by three washes with PBS.

[6] = 25 µM compound, 0.5 h, concentration in lysate
[7] = 25 µM compound, 72 h, concentration in lysate

T1 sequence (A6NIH7 whole entry, species assumed): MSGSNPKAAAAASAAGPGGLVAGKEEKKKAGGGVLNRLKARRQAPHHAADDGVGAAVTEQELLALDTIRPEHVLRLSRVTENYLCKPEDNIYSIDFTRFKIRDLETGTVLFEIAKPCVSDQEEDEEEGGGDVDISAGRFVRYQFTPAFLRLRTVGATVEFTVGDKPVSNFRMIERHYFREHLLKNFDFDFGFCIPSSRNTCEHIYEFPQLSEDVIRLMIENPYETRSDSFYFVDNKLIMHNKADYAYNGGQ

Compound	Kd (UNC119b) [nM]	Total drug content, pMols/million cells (MDA-MB-231 cells [2]) [pMols/million cells]	Fold higher total cell uptake than peptide 10 (MDA-MB-231 cells [2])	Total drug content, Measured Conc (MDA-MB-231 cells [2]) [nM]	Peptide concentration, total cell, 0.5 h (MDA-MB-231 cells [2]) [pmol per 10^6 cells]	Kd (UNC119a) [nM]	Peptide concentration, cytosol, 0.5 h (MDA-MB-231 cells [3]) [pmol per 10^6 cells]	Peptide concentration, nucleus, 0.5 h (MDA-MB-231 cells [3]) [pmol per 10^6 cells]	Peptide concentration, cytosol, 72 h (MDA-MB-231 cells [3]) [pmol per 10^6 cells]	Peptide concentration, nucleus, 72 h (MDA-MB-231 cells [3]) [pmol per 10^6 cells]	further results
CCCCCCCCCCCCCC(=O)NCC(=O)N[C@@H](C)C(=O)NCC(=O)N[C@@H](C)C(=O)N[C@@H](CO)C(=O)N[C@@]1(C)CCCC=CCCC[C@@](C)(C(=O)N[C@@H](CCCCN)C(N)=O)NC(=O)[C@H](CCCCN)NC(=O)[C@H](CCC(=O)O)NC(=O)[C@H](CCC(=O)O)NC1=O [Peptide 4] (Myristoyl-GAGAS[S5]EEK[S5]K-NH2; staple 6-10)	63.2 ± 14	59.9	more than 100 fold	155	60	5.5	<0.001	0.22	0.01	0.45	Cellular uptake relative to octa-arginine (R8) (HeLa cells [1]): about 50%
CC(=O)N[C@@H](CCCNC(=N)N)C(=O)N[C@@H](CCCNC(=N)N)C(=O)N[C@@H](CCCNC(=N)N)C(=O)N[C@@H](CCCNC(=N)N)C(=O)N[C@@H](CCCNC(=N)N)C(=O)N[C@@H](CCCNC(=N)N)C(=O)N[C@@H](CCCNC(=N)N)C(=O)N[C@@H](CCCNC(=N)N)C(N)=O [R8]	–	51.7	more than 100 fold	108	52	–	0.58	0.56	0.65	0.64	Sub-cellular drug content, pMols/million cells, Cytoplasm, 0.5 h (MDA-MB-231 cells [3]; 25 µM compound, 0.5 h): 0.584 pMols/million cells; Sub-cellular drug content, pMols/million cells, Nuclear, 0.5 h (MDA-MB-231 cells [3]; 25 µM compound, 0.5 h): 0.563 pMols/million cells; Sub-cellular drug content, Measured Conc, Cytoplasm, 0.5 h (MDA-MB-231 cells [3]; [6]): 3.59 nM; Sub-cellular drug content, Measured Conc, Nuclear, 0.5 h (MDA-MB-231 cells [3]; [6]): 6.91 nM; Sub-cellular drug content, pMols/million cells, Cytoplasm, 72 h (MDA-MB-231 cells [3]; 25 µM compound, 72 h): 0.651 pMols/million cells; Sub-cellular drug content, pMols/million cells, Nuclear, 72 h (MDA-MB-231 cells [3]; 25 µM compound, 72 h): 0.638 pMols/million cells; Sub-cellular drug content, Measured Conc, Cytoplasm, 72 h (MDA-MB-231 cells [3]; [7]): 2.92 nM; Sub-cellular drug content, Measured Conc, Nuclear, 72 h (MDA-MB-231 cells [3]; [7]): 5.73 nM
CCCCCCCCCCCCCC(=O)NCC(=O)N[C@@H](C)C(=O)NCC(=O)N[C@@H](C)C(=O)N[C@@H](CO)C(=O)N[C@@H](C)C(=O)N[C@@H](CCC(=O)O)C(=O)N[C@@H](CCC(=O)O)C(=O)N[C@@H](CCCCN)C(=O)N[C@@H](Cc1c[nH]cn1)C(=O)N[C@@H](CCCCN)C(N)=O [Peptide 1] (Myristoyl-GAGASAEEKHK-NH2)	11.2	–	–	–	–	7.4	–	–	–	–	–
COC(=O)Nc1nc2ccc(C(=O)c3cccs3)cc2[nH]1 [nocodazole]	–	–	–	–	–	–	–	–	–	–	DNA-content 4N, HeLa cells (HeLa cells [4]): 68.6 ±4.2%; DNA-content 4N, HeLa cells (HeLa cells [4]; listed as NC): increased numbers of cells with doubled DNA content; DNA-content 4N, L cells (mouse fibroblast L cells): 75.4 ± 15.0%; DNA-content 4N, L cells (mouse fibroblast L cells; listed as NC): increased numbers of cells with doubled DNA content; Effect on HeLa cell morphology (HeLa cells [5]): deformation of the tubulin network
